Test results taken from patent US6218430A, “Vitamin D3 mimics” (Ligand Pharmaceuticals Incorporated, priority 1998, dated 2001).
Entries after “also recorded” stand apart in the source; their conditions may differ. Read-outs that look alike come from different tables or passages of the source.

What was measured:
[1] = tested on: Normal human epidermal keratinocytes (NHEK); experiment: Keratinocyte growth inhibition (BrdU); format: cell-based; conditions: 96 h, BrdU incorporation, day 4
Experimental: (§1) Ten-fold serial dilutions were performed with changing of pipette tips between each dilution. Diluted compounds were then added to the cells (50 μL/well) to final concentrations of 1×10^-5 -1×10^-11 M (1% ethanol) in triplicate. […] BrdU (5-bromo-2'-deoxyuridine) incorporation was analyzed as a measure of DNA replication (Cell Proliferation ELISA kit, Boehringer) and absorbance was measured at 450 nm.
(§2) One row of wells contained media only and these absorbance values were averaged as background and then subtracted from absorbance values from each individual well containing cells. The average values were then determined for each triplicate and plotted vs ligand concentration. The average vehicle (1% ethanol) value was determined, less the background average. […] Potency (EC50) was determined as the concentration of compound that elicited half-maximal response.
Keratinocyte growth inhibition. Normal human epidermal keratinocytes (NHEK) were grown according to vendor specifications (Clonetics, San Diego). BrdU assays were performed as above except that cells were plated at 200 cells per well (96-well plates) and fresh media with ligands were added on day 0 and day 2; BrdU assays were run on day 4.

HL60 cells = experiment: Leukemic cell differentiation (NBT and CD14); format: cell-based; conditions: Homo sapiens, HL-60, 120 h; NBT and CD14 assays; differentiation into macrophages/monocytes; 5 days
Experimental: Leukemic cell differentiation. […] Ligands were added in ethanol vehicle (1%) at various concentrations for 5 days without changing the media. On the fifth day, cells were harvested and assayed for markers of differentiation. […] Cells that bioreduce the dye turn blue-black and represent differentiated cells, and are counted. Undifferentiated cells are clear and are also counted; percent differentiated cells are then determined from the two numbers.

[2] = tested on: SK-BR-3 breast cancer cells; experiment: Breast cancer cell growth inhibition (BrdU); format: cell-based; conditions: Homo sapiens, SK-BR-3, 72 h, BrdU incorporation, 3-day assay
Experimental: (§3) Cancer cell growth inhibition and analysis. SK-BR-3 human breast cancer cells (ATCC) and LNCaP human prostate cancer cells (ATCC) were plated in 96-well, flat-bottomed microtiter plates (CoStar) with 50 μL serum-containing media/well. […] Cell plating numbers (cells/well) were as follows: SK-BR-3, 3000 (3-day assays); LNCAP, 1000 (4-day assays). Cell plating number was determined by growth rate of each cell line and duration of the assay. […] Cells were allowed to adhere for 24 h prior to compound addition as follows:
as §1, §2

[3] = tested on: LNCaP prostate cancer cells; experiment: Prostate cancer cell growth inhibition (BrdU); format: cell-based; conditions: Homo sapiens, 96 h, BrdU incorporation, 4-day assay
Experimental: as §3, §1, §2

[4] = In vivo calcium potential: serum calcium (colorimetric); parameters: species or system mouse (Balb/c mice); conditions: oral gavage
Experimental: (§4) In vivo gene regulation and calcium potential. Balb/c mice (male 6-8 weeks old, ~20 g) were fed a vitamin D deficient, calcium replete diet (Purina Mills) for 7-14 days prior to receiving treatment with compounds. Animals were housed under normal lighting. Compounds were administered in sesame oil vehicle with 4% ethanol by oral gavage (0.1 mL dose volume). […] On the final day of dosing, 4-6 h after the final dose, animals were euthanized, the kidneys removed and blood collected. Serum was prepared from the blood and calcium determination performed by colorimetric assay (Sigma). […] 15-20 μg total RNA was utilized in Northern blot analysis using rat 24(OH)ase probe; GAPDH probe was used to normalize for RNA loading, as described previously (Id). Quantitation was by PhosphorImager analysis.

serum DBP = experiment: Serum DBP binding, rat or human serum, species not given; conditions: rat (r) or human (h) serum DBP, not marked (r)/(h); competition with [3H]-25(OH)D3
Experimental: Serum DBP-binding. DPB competition binding assays were performed by a literature method (Dusso et al. 1991). The source of DBP was either human serum (Scantibodies) or rat serum (Gibco-BRL) diluted 1:10,000 in sodium phosphate buffer (pH 7.4). Sera were incubated for 2 h at 4° C. with 2 nM [^3 H]-25(OH)D3 (Amersham) with and withoun unlabeled 25(OH)D3 or 1,25(OH)2D3 (0.01 nM-1 μM), or unlabeled vitamin D mimic compounds (10 nM-10 μM). Bound ligand was separated from unbound ligand with Dextran-coated charcoal in gelatin-phosphate buffer.

human VDR [5] = biological target: T1, human VDR (Homo sapiens, UniProt P11473); experiment: Cotransactivation (CTF) in Hep G2 cells, VDRE-luciferase reporter; format: cell-based; parameters: expressed in transfected cells; host or cells: Hep G2 (human hepatoma, ATCC)
T1 sequence (P11473 1-427): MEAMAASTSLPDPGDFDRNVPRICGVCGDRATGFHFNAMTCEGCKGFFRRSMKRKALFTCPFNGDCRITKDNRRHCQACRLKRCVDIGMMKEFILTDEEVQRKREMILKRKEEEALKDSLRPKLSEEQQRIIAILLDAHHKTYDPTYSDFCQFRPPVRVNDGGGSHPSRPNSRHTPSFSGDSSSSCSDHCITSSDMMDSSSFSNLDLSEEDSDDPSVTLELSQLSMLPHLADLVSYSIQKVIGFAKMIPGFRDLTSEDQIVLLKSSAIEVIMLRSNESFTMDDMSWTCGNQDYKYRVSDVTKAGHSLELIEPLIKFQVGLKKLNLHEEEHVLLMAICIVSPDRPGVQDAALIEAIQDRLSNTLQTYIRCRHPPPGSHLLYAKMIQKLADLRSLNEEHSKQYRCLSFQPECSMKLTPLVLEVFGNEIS
Experimental: Cotransactivation properties. […] Reporter and receptor containing vectors were transfected along with carrier DNA and β-galactosidase internal control plasmid as previously described except that Hep G2 cells were used (Id). Briefly, transfections were performed in triplicate in 96-well gelatin-coated plates with a total of 20 μg/mL DNA (0.5 μg receptor expression vector, 5 μg reported plasmid, 5 μg β-galactosidase plasmid, and pGEM carrier DNA to 20 μg) of calcium phosphate-HEPES transfection solution. […] Luciferase values were normalized with β-galactosidase values to control for variable transfection efficiencies.

human VDR [6] = biological target: T1, human VDR; experiment: biochemical
Experimental: VDR binding. […] Cell extracts from yeast transformants were prepared and full length VDR expression was confirmed by Western blotting. […] Binding buffer contained 10 mM Tris,pH 7.5, 1 mM DTT, and 0.4 M KCl; wash buffer contained 10 mM Tris, 100 mM KCl, and 10 mM CHAPS detergent.

[7] = Serum calcium in LNCaP tumor-bearing nude mice; format: in vivo; conditions: 3 mg/kg and 10 mg/kg, days 10 and 15
Experimental: FIGS. 1A and 1B depict the In vivo efficacy of compound 4 in LNCaP tumor growth inhibition in nude mice without hypercalcemia.
(§5) In vivo efficacy. Nude mice (6 weeks old) were housed under normal light and fed a vitamin D deficient, calcium replete diet (Purina Mills) for 7-10 days prior to injection with LNCaP cells. Tumors were allowed to grow 2-4 weeks prior to dosing. Compounds or vehicle were administered in sesame oil by oral gavage (0.1 mL dose volume). Dosing was daily for the extent of the study. Tumor measurements were taken on days 10 and 15. Animals were then euthanized, and kidneys and blood retrieved. Serum calcium measurements were taken from the final bleed and an intermediate bleed on day 10. […] Average animal weight change per group was as follows: Vehicle, -7.2%; Compound 4 (3 mg/kg), -2.1%; Compound 4 (10 mg/kg), -8.9%.

LNCaP tumor = experiment: In vivo efficacy: LNCaP tumor growth in nude mice; parameters: species or system LNCaP human prostate cancer cells in nude mice
Experimental: as §5

[8] = Animal weight change in LNCaP tumor-bearing nude mice; format: in vivo; conditions: vehicle -7.2%
Experimental: as §5

24(OH)ase = experiment: In vivo gene regulation: kidney 24(OH)ase RNA induction (Northern blot); parameters: species or system mouse (Balb/c mice); conditions: for Relative 24(OH)ase activity: oral gavage, vehicle 1, corrected with GAPDH
Experimental: as §4

[9] = cotransfected VDRE-luciferase reporter and human VDR in Hep G2 cells, read-out: CTF EC50

C=C1/C(=C\C=C2/CCC[C@]3(C)[C@@H]([C@H](C)CCCC(C)(C)O)CC[C@@H]23)C[C@@H](O)C[C@@H]1O [1,25(OH)2 D3, 1,25-dihydroxyvitamin D3, reference compound]
EC50 [1]: 10 to 30 nM
EC50 (HL60 cells): 8 to 10 nM
EC50 [2]: 8 to 10 nM
EC50 [3]: 2 nM
Serum Ca2+ ([4]; 3-day treatment, 15 μg/kg, statistically different than vehicle (p < 0.01)): > 15 mg/dL
Serum Ca2+ ([4]; 5-day treatment, 2 μg/kg): 9.7 ± 0.6 mg/dL
Serum Ca2+ ([4]; 5-day treatment, 5 μg/kg, statistically different than vehicle (p < 0.01)): 10.5 ± 0.6 mg/dL

Cc1cc(C2(c3ccc(OCC(=O)C(C)(C)C)c(C)c3)CCCCC2)ccc1OCC(=O)C(C)(C)C [Compound 4, 1,1-bis[3-methyl-4-(3,3-dimethyl-2-oxobutoxy)phenyl]cyclohexane]
EC50 [1]: 500 nM
IC50 (serum DBP): > 10000 nM
EC50 (human VDR [5]): 2200 nM
Ki (human VDR [6]): > 10000 nM
serum calcium levels / hypercalcemia (FIG. 1B) [7]: hypercalcemia was not observed; also recorded: normal serum calcium levels
tumor growth rate vs control group (LNCaP tumor; 3 mg/kg and 10 mg/kg oral gavage daily): decreased tumor growth rates as compared to the control group
tumor size vs vehicle (FIG. 1A) (LNCaP tumor; 10 and 15 days post dosing): smaller
EC50 (HL60 cells): 2000 nM
EC50 [2]: 2000 nM
EC50 [3]: 2000 nM
Average animal weight change per group ([8]; 3 mg/kg): -2.1%
Average animal weight change per group ([8]; 10 mg/kg): -8.9%
Serum Ca2+ ([4]; 3-day treatment, 10 mg/kg): 9.1 ± 0.5 mg/dL
Serum Ca2+ ([4]; 3-day treatment, 30 mg/kg): 9.0 ± 0.6 mg/dL
Serum Ca2+ ([4]; 5-day treatment, 10 mg/kg): 9.1 ± 0.2 mg/dL
Serum Ca2+ ([4]; 5-day treatment, 30 mg/kg): 10.1 ± 0.5 mg/dL
Ratio 24(OH)ase/Ca2+ (24(OH)ase; 3-day treatment, 10 mg/kg): 1.48
Ratio 24(OH)ase/Ca2+ increase (24(OH)ase; 3-day treatment, 10 mg/kg): 16.9
Relative 24(OH)ase activity (24(OH)ase; 3-day treatment, 10 mg/kg): 13.5
Ratio 24(OH)ase/Ca2+ (24(OH)ase; 3-day treatment, 30 mg/kg): 1.18
Ratio 24(OH)ase/Ca2+ increase (24(OH)ase; 3-day treatment, 30 mg/kg): 15.1
Relative 24(OH)ase activity (24(OH)ase; 3-day treatment, 30 mg/kg): 10.6
Ratio 24(OH)ase/Ca2+ (24(OH)ase; 5-day treatment, 10 mg/kg): 3.38
Ratio 24(OH)ase/Ca2+ increase (24(OH)ase; 5-day treatment, 10 mg/kg): 61.6
Relative 24(OH)ase activity (24(OH)ase; 5-day treatment, 10 mg/kg): 30.8
Ratio 24(OH)ase/Ca2+ (24(OH)ase; 5-day treatment, 30 mg/kg): 5.31
Ratio 24(OH)ase/Ca2+ increase (24(OH)ase; 5-day treatment, 30 mg/kg): 35.8
Relative 24(OH)ase activity (24(OH)ase; 5-day treatment, 30 mg/kg): 53.7
separation of target gene induction from serum calcium (24(OH)ase; mice, vs 1,25(OH)2 D3): greater separation of these effects for 4 than for 1,25(OH)2 D3; also recorded: good separation of target gene regulation from serum calcium elevation

CCC(CC)(c1ccc(OCC(=O)C(C)(C)C)c(C)c1)c1ccc(OCC(=O)C(C)(C)C)c(C)c1 [Compound 7, 3,3-bis[3-methyl-4-(3,3-dimethyl-2-oxobutoxy)phenyl]pentane]
EC50 [1]: 500 nM
IC50 (serum DBP): > 10000 nM
EC50 (human VDR [5]; [9]): 600 nM
Ki (human VDR [6]): > 10000 nM
EC50 (HL60 cells): 800 nM
EC50 [2]: 800 nM
EC50 [3]: 300 nM
Serum Ca2+ ([4]; 3-day treatment, 100 μg/kg): 9.6 ± 0.5 mg/dL
Serum Ca2+ ([4]; 3-day treatment, 500 μg/kg, statistically different than vehicle (p < 0.01)): 11.5 ± 0.9 mg/dL
Ratio 24(OH)ase/Ca2+ (24(OH)ase; 3-day treatment, 100 μg/kg): 0.63
Ratio 24(OH)ase/Ca2+ increase (24(OH)ase; 3-day treatment, 100 μg/kg): 5.17
Relative 24(OH)ase activity (24(OH)ase; 3-day treatment, 100 μg/kg): 6.0
Ratio 24(OH)ase/Ca2+ (24(OH)ase; 3-day treatment, 500 μg/kg): 0.52
Ratio 24(OH)ase/Ca2+ increase (24(OH)ase; 3-day treatment, 500 μg/kg): 1.88
Relative 24(OH)ase activity (24(OH)ase; 3-day treatment, 500 μg/kg): 6.0

CCC(CC)(c1ccc(OCC(=O)C(C)(C)C)c(C)c1)c1ccc(OCC2CO2)c(C)c1 (stereo not drawn) [Compound 9, 3-[3-methyl-4-(2,3-epoxypropoxy)phenyl]-3-[3-methyl-4-(3,3-dimethyl-2-oxobutoxy)phenyl]pentane]
EC50 [1]: 200 nM
IC50 (serum DBP): > 10000 nM
EC50 (human VDR [5]; [9]): 60 nM
Ki (human VDR [6]): > 10000 nM
EC50 (HL60 cells): 150 nM
EC50 [2]: 150 nM
EC50 [3]: 100 nM

CCC(CC)(c1ccc(OCC(=O)C(C)(C)C)c(C)c1)c1ccc(OCC(O)C(C)(C)C)c(C)c1 (stereo not drawn) [Compound 11, 3-[3-methyl-4-(2-hydroxy-3,3-dimethylbutoxy)phenyl]-3-[3-methyl-4-(3,3-dimethyl-2-oxobutoxy)phenyl]pentane]
IC50 (serum DBP): > 10000 nM
EC50 (human VDR [5]): 400 nM
Ki (human VDR [6]): > 10000 nM
EC50 (HL60 cells): 400 nM
EC50 [2]: 500 nM
EC50 [3]: 500 nM

CCC(CC)(c1ccc(OCC(O)CO)c(C)c1)c1ccc(OCC(O)C(C)(C)C)c(C)c1 (stereo not drawn) [Compound 13, 3-[3-methyl-4-(2,3-dihydroxypropoxy)phenyl]-3-[3-methyl-4-(2-hydroxy-3,3-dimethylbutoxy)phenyl]pentane]
EC50 [1]: 30 to 50 nM
IC50 (serum DBP): > 10000 nM
EC50 (HL60 cells): 30 to 50 nM
EC50 [2]: 30 to 50 nM
EC50 [3]: 20 nM
